Data set [1] has as its system JNK. The data set is described as follows: JNK phosphorylation (activation), Western blot. The class given is cell-based, human. The conditions noted are these: glioma cells. The procedure:
20 μg of whole U87 cell (or nuclear) lysate was subjected to sodium dodecyl sulfate (SDS)-polyacrylamide gel electrophoresis (PAGE). Following electro-transfer, Immobilon-P membranes (Millipore Corp. Burlington, Mass., USA.) were probed with primary polyclonal antibody against IκBα, phospho-Ser32-IκBα, SAPK/JNK, phospho-Thr183/Tyr185-SAPK/JNK, p65, phospho-Ser536-p65 (Cell Signaling Technology Inc. Beverly, […]., USA) diluted 1:1000 overnight at 4° C. Anti-rabbit IgG HRP-linked secondary antibody (Cell Signaling Technology) was diluted 1:1000 in blocking buffer and applied for 1 h at room temperature. Immunoreactive bands were detected by SuperSignal enhanced chemiluminescence (ECL) (Pierce, Rockford, Ill., USA) and exposed to Kodak X-Omat film.

Data set [2] concerns U87 intracranial xenografts. The data set is described as follows: Intracranial glioma xenograft survival. Format: in vivo, nude mice. The following applies: first intracranial experiment; TMZ 20 mg/kg total IP, single IC Ad.Egr-TNF. As for the experimental part: Intracranial Studies: In two separate experiments, 5×10^5 U87 cells were inoculated into the right caudate nucleus on day 0 using a screw guide technique (Lal, S. et al. (2000) J Neurosurg 92:326-333). In the first experiment, mice were randomized into four groups as described above in Example 4. On day 5, a single intracranial (IC) injection of 5×10^8 pu Ad.Egr-TNF in 5 μl volume was made directly into the tumor using the screw guide technique. TMZ (5 mg/kg) was given IP 3 h after IC vector inoculation. Three additional IP TMZ injections were administered on consecutive days for a total dose of 20 mg/kg. Control animals received SFM IT and IP.
In a second experiment, mice were randomized into eight groups (untreated control (UTC); intratumoral (IT) Ad.Egr-TNF alone; intraperitoneal (IP) TMZ alone; IR alone; Ad.Egr-TNF and TMZ; Ad.Egr-TNF and IR; TMZ and IR; and Ad.Egr-TNF, TMZ and IR). A single dose of 5×10^5 U87 cells was inoculated into the right caudate nucleus of each mouse on day 0 using a screw guide technique (Lal, S. et al. (2000) J Neurosurg 92:326-333). On day 5, 5×10^8 pu Ad.Egr-TNF in 5 μL volume was injected once via the screw guide directly into the tumor. Beginning two hours after vector injection, 5 Gy IR was delivered to the tumor area and repeated every 2-3 days to a total of 30 Gy. […]

For data set [3], the system named is U87 hindlimb xenografts. Description: TNFα induction in vivo in hindlimb xenografts. Also on record: species or system nude mice. The procedure:
U87 cells (5×10^6) in […] were injected subcutaneously (sc) into the right hindlimb of nude mice. When tumors reached an average size of 200 mm^3 (length×width×thickness/2), the tumor-bearing mice were randomized into 4 groups: 1. Untreated Control (UTC); 2. Ad.Egr-TNF alone; 3. TMZ alone; 4. Ad.Egr-TNF and TMZ. Ad.Egr-TNF was injected intratumorally (IT) at a dose of 2×10^8 particle units (pu) each day. Two doses of TMZ were given: 2.5 mg/kg/day and 5 mg/kg/day by intraperitoneal (IP) injection 3 h after vector. Four consecutive daily IT and IP injections were given, control animals received IT and IP serum free medium (SFM). Animals were euthanized on day 2 and 4 (i.e., 48 h and 96 h after treatment initiation), tumors harvested, snap-frozen in liquid nitrogen and homogenized in RIPA buffer (150 mM NaCl, 10 mM Tris at pH 7.5, 5 mM EDTA at pH 7.5, […], 1 μg/mL leupeptin, and 2 μg/mL aprotinin). Protein was isolated and concentration measured using Protein Assay reagent (Bio-Rad Laboratories, Hercules, Calif.). TNFα levels in the supernatants were measured as described above.

Data set [4] in a line: LD50 of IP TMZ. Also on record: species or system mice. The conditions noted are these: mouse, in vivo.
Data set [5] deals with U87 hindlimb xenografts. Description: Hindlimb glioma xenograft tumor growth. Format: in vivo, nude mice. The following applies: 30 days following treatment, second hindlimb study. As for the experimental part: Hindlimb Studies: U87 hindlimb xenografts were established as described above in Example 4. In one study, mice were randomized into four groups as described in Example 4 and treatment initiated (day 0). Ad.Egr-TNF (2×10^8 pu) was injected IT twice a week for 4 total injections, and 5 mg/kg TMZ was given IP 3 h after each vector injection for a total of 20 mg/kg. The dose of TMZ used was approximately 0.2 LD10 and was chosen to have modest anti-tumor effect but to not be curative based on previous studies (Friedman, H. S. et al. (1995) Cancer Res 55(13):2853-2857) and data from our lab showing LD50 for IP TMZ to be approximately 500 mg/kg. Tumor volume was measured every 2-3 days. Fractional tumor volume (V/V0 where V0=volume on day 0) was calculated and plotted.
In a second study, tumor-bearing mice were randomized into eight treatment groups: untreated control (UTC); intratumoral (IT) Ad.Egr-TNF alone; intraperitoneal (IP) TMZ alone; IR alone; Ad.Egr-TNF and TMZ; Ad.Egr-TNF and IR; TMZ and IR; and Ad.Egr-TNF, TMZ and IR. Ad.Egr-TNF was administered IT at a dose of 2×10^8 pu/10 μL twice a week for 2 weeks, IP TMZ was given 3 h after vector at 5 mg/kg to a total of 20 mg/kg. […] Xenografts were measured twice a week using calipers, tumor volume was calculated, and fractional tumor volumes (V/V0 where V0=volume on day 0) were plotted.

Data set [6] concerns NF-κB in glioma cells. The data set is described as follows: IR- and TNFα-induced NF-κB activity and nuclear translocation. Format: cell-based. The following applies: co-treatment with TNFα and IR.

We go through 1 compound from patent US20110091375A1, “USE OF THE COMBINATION COMPRISING TEMOZOLOMIDE AND TNF-ALPHA FOR TREATING GLIOBLASTOMA” (THE UNIVERSITY OF CHICAGO, priority 2004, published 2011).

By LD50 is commonly meant the dose at which mortality reaches 50%. For `Cn1nnc2c(C(N)=O)ncn2c1=O` [TMZ, temozolomide], in data set [1], the “JNK phosphorylation (activation)” value was “progressive and delayed activation”. The compound further returned a median survival in data set [2] of 28 days. In data set [3], the “TNF detection in vivo” value is “No TNF was detected”. Also, the LD50 in data set [4] is roughly 500 mg/kg. In data set [5], the “animals with complete disappearance of palpable tumor” value was 1/10. In data set [6], the “NF-κB transcriptional activity and nuclear translocation increased by TNFα and IR” value is recorded as “inhibited”.
